What was measured:
Details in all cases: 48 h
NOMO1 [1] = experiment: cell viability relative to DMSO control; higher = less cytotoxic
In short: (§1)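 Before seeding, each leukemia line was adapted for at least four passages in each medium. NOMO1 or SEM cells (500 cells/well) and P12-Ichikawa cells (1000 cells/well) went into 1536-well plates at 5 μl, then received library compounds in DMSO by pin dosing across 11 threefold concentrations, 47 μM to 0.79 nM. Readout was CellTiter-Glo One luminescence after 48 h at 37°C, and viability is given as a per-plate percentage of DMSO wells, with cell-free wells as background.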

P12-Ichikawa [2] = experiment: as above
In short: as §1

SEM cells [3] = experiment: as above
In short: as §1

NOMO1 [4] = experiment: AUC of viability dose-response curve (% viability x log10 dose units); higher = less sensitive
In short: (§2)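 Area under the curve was integrated by trapezoidal rule from a log-logistic fit of normalised viability, with curves exceeding full viability scaled and quality-control failures removed. The fit had four parameters over log10 doses. Viability came from CellTiter-Glo One luminescence, normalised per plate to DMSO and cell-free wells, after leukemia cells adapted to each medium (500 or 1000 cells/well, 1536-well plates) were exposed to library compounds in DMSO for 48 h at 37°C. The 11 threefold doses ran from 47 μM to 0.79 nM.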

SEM cells [5] = experiment: as above
In short: as §2

P12-Ichikawa [6] = experiment: as above
In short: as §2

COc1ccc(Cn2ccc3ccc(C(=O)NO)cc32)cc1
cell viability [%]
Details	NOMO1 [1]	P12-Ichikawa [2]	SEM cells [3]
HPLM + 10% dialyzed FBS, 0.000781 µM	–	116	102
HPLM + 10% dialyzed FBS, 0.00234 µM	–	121	107
HPLM + 10% dialyzed FBS, 0.00702 µM	–	119	120
HPLM + 10% dialyzed FBS, 0.0211 µM	–	87.4	120
HPLM + 10% dialyzed FBS, 0.0632 µM	–	128	123
HPLM + 10% dialyzed FBS, 0.19 µM	–	123	113
HPLM + 10% dialyzed FBS, 0.569 µM	–	120	127
HPLM + 10% dialyzed FBS, 1.71 µM	–	119	118
HPLM + 10% dialyzed FBS, 5.12 µM	–	113	112
HPLM + 10% dialyzed FBS, 15.4 µM	–	90.3	114
HPLM + 10% dialyzed FBS, 46.1 µM	–	44	58.5
RPMI 5 mM glucose + 10% FBS, 0.000781 µM	107	108	103
RPMI 5 mM glucose + 10% FBS, 0.00234 µM	121	114	115
RPMI 5 mM glucose + 10% FBS, 0.00702 µM	115	120	122
RPMI 5 mM glucose + 10% FBS, 0.0211 µM	128	65.3	98.1
RPMI 5 mM glucose + 10% FBS, 0.0632 µM	124	134	109
RPMI 5 mM glucose + 10% FBS, 0.19 µM	123	125	129
RPMI 5 mM glucose + 10% FBS, 0.569 µM	130	130	127
RPMI 5 mM glucose + 10% FBS, 1.71 µM	137	120	127
RPMI 5 mM glucose + 10% FBS, 5.12 µM	124	120	109
RPMI 5 mM glucose + 10% FBS, 15.4 µM	130	83.5	109
RPMI 5 mM glucose + 10% FBS, 46.1 µM	128	52.3	49.3
RPMI 5 mM glucose + 10% dialyzed FBS, 0.000781 µM	–	116	99.6
RPMI 5 mM glucose + 10% dialyzed FBS, 0.00234 µM	–	116	110
RPMI 5 mM glucose + 10% dialyzed FBS, 0.00702 µM	–	116	115
RPMI 5 mM glucose + 10% dialyzed FBS, 0.0211 µM	–	79.9	76.3
RPMI 5 mM glucose + 10% dialyzed FBS, 0.0632 µM	–	126	114
RPMI 5 mM glucose + 10% dialyzed FBS, 0.19 µM	–	126	118
RPMI 5 mM glucose + 10% dialyzed FBS, 0.569 µM	–	129	112
RPMI 5 mM glucose + 10% dialyzed FBS, 1.71 µM	–	119	110
RPMI 5 mM glucose + 10% dialyzed FBS, 5.12 µM	–	114	112
RPMI 5 mM glucose + 10% dialyzed FBS, 15.4 µM	–	87	111
RPMI 5 mM glucose + 10% dialyzed FBS, 46.1 µM	–	55.6	38.5

AUC of viability dose-response curve
Details	HPLM + 10% dialyzed FBS	RPMI 5 mM glucose + 10% FBS	RPMI 5 mM glucose + 10% dialyzed FBS
NOMO1 [4]	446	461	469
SEM cells [5]	464	460	462

COC(=O)C/1=C/O[C@@H](O)[C@H]\2[C@@H]1C\C=C2CO
SEM cells [3], HPLM + 10% dialyzed FBS
Details	cell viability [%]
0.000781 µM	98.6
0.00234 µM	116
0.00702 µM	101
0.0211 µM	114
0.0632 µM	138
0.19 µM	114
0.569 µM	126
1.71 µM	112
5.12 µM	112
15.4 µM	104
46.1 µM	76.9

AUC of viability dose-response curve
Details	NOMO1 [4]	P12-Ichikawa [6]	SEM cells [5]
HPLM + 10% dialyzed FBS	472	469	465
RPMI 5 mM glucose + 10% FBS	461	466	462
RPMI 5 mM glucose + 10% dialyzed FBS	467	466	454

Cc1ccccc1C(C(=O)NC1CCCCC1)N(C(=O)CNc1ccc(C#N)cc1)c1cccc(F)c1 (stereo not drawn)
cell viability [%]
Details	NOMO1 [1]	P12-Ichikawa [2]	SEM cells [3]
HPLM + 10% dialyzed FBS, 0.000781 µM	103	111	88.7
HPLM + 10% dialyzed FBS, 0.00234 µM	111	113	116
HPLM + 10% dialyzed FBS, 0.00702 µM	115	107	119
HPLM + 10% dialyzed FBS, 0.0211 µM	106	105	121
HPLM + 10% dialyzed FBS, 0.0632 µM	98.3	114	124
HPLM + 10% dialyzed FBS, 0.19 µM	111	103	118
HPLM + 10% dialyzed FBS, 0.569 µM	112	106	118
HPLM + 10% dialyzed FBS, 1.71 µM	99.4	104	105
HPLM + 10% dialyzed FBS, 5.12 µM	114	102	118
HPLM + 10% dialyzed FBS, 15.4 µM	84.2	104	103
HPLM + 10% dialyzed FBS, 46.1 µM	82.8	99.2	111
RPMI 5 mM glucose + 10% FBS, 0.000781 µM	77.2	73.9	113
RPMI 5 mM glucose + 10% FBS, 0.00234 µM	88.5	104	118
RPMI 5 mM glucose + 10% FBS, 0.00702 µM	94.5	110	105
RPMI 5 mM glucose + 10% FBS, 0.0211 µM	87.7	112	106
RPMI 5 mM glucose + 10% FBS, 0.0632 µM	103	112	105
RPMI 5 mM glucose + 10% FBS, 0.19 µM	94	102	119
RPMI 5 mM glucose + 10% FBS, 0.569 µM	93.7	102	103
RPMI 5 mM glucose + 10% FBS, 1.71 µM	100	102	96.9
RPMI 5 mM glucose + 10% FBS, 5.12 µM	89.6	99	95
RPMI 5 mM glucose + 10% FBS, 15.4 µM	90.1	95.6	93.4
RPMI 5 mM glucose + 10% FBS, 46.1 µM	87.3	94.6	106
RPMI 5 mM glucose + 10% dialyzed FBS, 0.000781 µM	71.9	64.4	85
RPMI 5 mM glucose + 10% dialyzed FBS, 0.00234 µM	110	110	107
RPMI 5 mM glucose + 10% dialyzed FBS, 0.00702 µM	140	110	119
RPMI 5 mM glucose + 10% dialyzed FBS, 0.0211 µM	142	112	95.4
RPMI 5 mM glucose + 10% dialyzed FBS, 0.0632 µM	98.5	104	97
RPMI 5 mM glucose + 10% dialyzed FBS, 0.19 µM	84.7	92.7	103
RPMI 5 mM glucose + 10% dialyzed FBS, 0.569 µM	88.2	103	91.6
RPMI 5 mM glucose + 10% dialyzed FBS, 1.71 µM	70.1	92.5	108
RPMI 5 mM glucose + 10% dialyzed FBS, 5.12 µM	80.3	91.3	97.6
RPMI 5 mM glucose + 10% dialyzed FBS, 15.4 µM	97	98.8	101
RPMI 5 mM glucose + 10% dialyzed FBS, 46.1 µM	76.9	98.6	89.5

AUC of viability dose-response curve
Details	HPLM + 10% dialyzed FBS	RPMI 5 mM glucose + 10% FBS	RPMI 5 mM glucose + 10% dialyzed FBS
P12-Ichikawa [6]	453	476	467
SEM cells [5]	471	454	470

Reference: the supplement of paper PMC11451515
